Laboratory results taken from patent US20250186437A1, “CARBOLINE COMPOUNDS AND USE THEREOF” (PTC Therapeutics, Inc., priority 2021, published 2025).

Each compound was assayed on MOLM-13 cells (assay: MOLM-13 Cell Proliferation Assay (indicator of DHODH inhibition)). Conditions: Homo sapiens, 72 Hours of culture, CellTiter-Glo, no uridine.
Format: cell-based
In short: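 Low-passage MOLM-13 cells (10^4/well) in RPMI 1640 + 10% FBS exposed to compound (0.5% DMSO final) for 72 h at 37 °C, 5% CO2. Viability read by CellTiter-Glo luminescence; growth reflects de novo pyrimidine synthesis dependent on DHODH.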

| IC50 [nM] | SMILES |
| --- | --- |
| 2.8 | CC1(C)CN(c2ncc([C@H]3c4[nH]c5ccc(Cl)cc5c4CCN3c3nc(C(F)(F)F)cc(C(F)(F)F)n3)cn2)CCN1 [Compound 496, (1S)-2-[4,6-bis(trifluoromethyl)pyrimidin-2-yl]-6-chloro-1-[2-(3,3-dimethylpiperazin-1-yl)pyrimidin-5-yl]-2,3,4,9-tetrahydro-1H-pyrido[3,4-b]indole] |
| 3.8 | Cc1cc(C)nc(N2CCc3c([nH]c4ccc(Cl)cc34)C2c2cnc(N3CCOCC3)nc2)n1 (stereo not shown) [Compound 308, 6-chloro-2-(4,6-dimethylpyrimidin-2-yl)-1-[2-(morpholin-4-yl)pyrimidin-5-yl]-2,3,4,9-tetrahydro-1H-pyrido[3,4-b]indole] |
| 1.6 | CSc1nc(N2CCc3c([nH]c4ccc(Cl)cc34)[C@@H]2c2ccc(N3CCN(C)CC3)nc2)nc(C(F)(F)F)n1 [Compound 489, (1S)-6-chloro-1-[6-(4-methylpiperazin-1-yl)pyridin-3-yl]-2-[4-(methylsulfanyl)-6-(trifluoromethyl)-1,3,5-triazin-2-yl]-2,3,4,9-tetrahydro-1H-pyrido[3,4-b]indole] |
| 1.3 | FC(F)(F)c1ccnc(N2CCc3c([nH]c4ccc(Cl)cc34)C2c2ccc(N3CCOCC3)cc2)n1 (stereo not shown) [Compound 262, 6-chloro-1-[4-(morpholin-4-yl)phenyl]-2-[4-(trifluoromethyl)pyrimidin-2-yl]-2,3,4,9-tetrahydro-1H-pyrido[3,4-b]indole] |
| 25.6 | Cc1cnnc(N2CCc3c([nH]c4ccc(Cl)cc34)C2c2cnc(N3CCOCC3)nc2)n1 (stereo not shown) [Compound 384, 6-chloro-2-(5-methyl-1,2,4-triazin-3-yl)-1-[2-(morpholin-4-yl)pyrimidin-5-yl]-2,3,4,9-tetrahydro-1H-pyrido[3,4-b]indole] |
| 1.2 | Cc1ccc([C@H]2c3[nH]c4ccc(Cl)cc4c3CCN2c2nc(C#N)cc(C(F)(F)F)n2)cc1 [Compound 425, 2-[(1S)-6-chloro-1-(4-methylphenyl)-1,3,4,9-tetrahydro-2H-pyrido[3,4-b]indol-2-yl]-6-(trifluoromethyl)pyrimidine-4-carbonitrile] |
| 2.4 | Cc1ccc(C2c3[nH]c4cc(F)c(Cl)cc4c3CCN2c2ncc(F)c(C#N)n2)c(F)c1F (stereo not shown) [Compound 162, 2-[6-chloro-1-(2,3-difluoro-4-methylphenyl)-7-fluoro-1,3,4,9-tetrahydro-2H-pyrido[3,4-b]indol-2-yl]-5-fluoropyrimidine-4-carbonitrile] |
| 31.8 | Fc1ccc(C2c3[nH]c4ccc(Cl)cc4c3CCN2c2ncc(Cl)cn2)cc1 (stereo not shown) [Compound 1, 6-chloro-2-(5-chloropyrimidin-2-yl)-1-(4-fluorophenyl)-2,3,4,9-tetrahydro-1H-pyrido[3,4-b]indole] |
| 8.1 | CN1CCN(c2ncc([C@H]3c4[nH]c5ccc(Cl)cc5c4CCN3c3nc(N4CCOCC4)nc(C(F)(F)F)n3)cn2)CC1 [Compound 509, (1S)-6-chloro-1-[2-(4-methylpiperazin-1-yl)pyrimidin-5-yl]-2-[4-(morpholin-4-yl)-6-(trifluoromethyl)-1,3,5-triazin-2-yl]-2,3,4,9-tetrahydro-1H-pyrido[3,4-b]indole] |
| 4.9 | Cc1ccc([C@H]2c3[nH]c4ccc(Cl)cc4c3CCN2c2ncc(F)c(C)n2)cc1 [Compound 394, (1S)-6-chloro-2-(5-fluoro-4-methylpyrimidin-2-yl)-1-(4-methylphenyl)-2,3,4,9-tetrahydro-1H-pyrido[3,4-b]indole] |
| 22.4 | N#Cc1ccnc(N2CCc3c([nH]c4cc(F)c(Cl)cc34)C2c2ccc(Cl)cc2)n1 (stereo not shown) [Compound 40, 2-[6-chloro-1-(4-chlorophenyl)-7-fluoro-1,3,4,9-tetrahydro-2H-pyrido[3,4-b]indol-2-yl]pyrimidine-4-carbonitrile] |
| 7.9 | COC(=O)c1ccnc(N2CCc3c([nH]c4ccc(Cl)c(F)c34)C2c2ccc(Cl)cc2)n1 (stereo not shown) [Compound 87, methyl 2-[6-chloro-1-(4-chlorophenyl)-5-fluoro-1,3,4,9-tetrahydro-2H-pyrido[3,4-b]indol-2-yl]pyrimidine-4-carboxylate] |
| 20.7 | C=Cc1ccc(C2c3[nH]c4cc(F)c(Cl)cc4c3CCN2c2ncc(F)cn2)cc1 (stereo not shown) [Compound 79, 6-chloro-1-(4-ethenylphenyl)-7-fluoro-2-(5-fluoropyrimidin-2-yl)-2,3,4,9-tetrahydro-1H-pyrido[3,4-b]indole] |
| 3 | Fc1ccc(C2c3[nH]c4ccc(Cl)c(F)c4c3CCN2c2nccc(C(F)(F)F)n2)c(F)n1 (stereo not shown) [Compound 186, 6-chloro-1-(2,6-difluoropyridin-3-yl)-5-fluoro-2-[4-(trifluoromethyl)pyrimidin-2-yl]-2,3,4,9-tetrahydro-1H-pyrido[3,4-b]indole] |
| 60.6 | Cc1cnc(N2CCc3c([nH]c4ccc(Cl)cc34)C2c2ccc(F)cc2)nc1 (stereo not shown) [Compound 2, 6-chloro-1-(4-fluorophenyl)-2-(5-methylpyrimidin-2-yl)-2,3,4,9-tetrahydro-1H-pyrido[3,4-b]indole] |
| 1.6 | FC(F)(F)c1cc(C(F)(F)F)nc(N2CCc3c([nH]c4ccc(Cl)cc34)[C@@H]2c2cnc(N3CCNC4(CC4)C3)nc2)n1 [Compound 512, (1S)-2-[4,6-bis(trifluoromethyl)pyrimidin-2-yl]-6-chloro-1-[2-(4,7-diazaspiro[2.5]octan-7-yl)pyrimidin-5-yl]-2,3,4,9-tetrahydro-1H-pyrido[3,4-b]indole] |
| 1.9 | Cc1ccc(C2c3[nH]c4cc(F)c(Cl)cc4c3CCN2c2nc(C)cc(C(F)(F)F)n2)cc1 (stereo not shown) [Compound 96, 6-chloro-7-fluoro-1-(4-methylphenyl)-2-[4-methyl-6-(trifluoromethyl)pyrimidin-2-yl]-2,3,4,9-tetrahydro-1H-pyrido[3,4-b]indole] |
| 4 | COC(=O)CCc1ccc(C2c3[nH]c4cc(F)c(Cl)cc4c3CCN2c2nccc(C(F)(F)F)n2)cc1 (stereo not shown) [Compound 164, methyl 3-(4-{6-chloro-7-fluoro-2-[4-(trifluoromethyl)pyrimidin-2-yl]-2,3,4,9-tetrahydro-1H-pyrido[3,4-b]indol-1-yl}phenyl)propanoate] |
| 10.3 | Fc1cc2[nH]c3c(c2cc1Cl)CCN(c1nccc(Cl)n1)C3c1ccc(Cl)cc1 (stereo not shown) [Compound 39, 6-chloro-1-(4-chlorophenyl)-2-(4-chloropyrimidin-2-yl)-7-fluoro-2,3,4,9-tetrahydro-1H-pyrido[3,4-b]indole] |
| 4.4 | Cc1ccc(C2c3[nH]c4ccc(Cl)c(F)c4c3CCN2c2nc(C#N)cc(C#N)n2)cc1 (stereo not shown) [Compound 228, 2-[6-chloro-5-fluoro-1-(4-methylphenyl)-1,3,4,9-tetrahydro-2H-pyrido[3,4-b]indol-2-yl]pyrimidine-4,6-dicarbonitrile] |

| SMILES | IC50 [nM] |
| --- | --- |
| CNc1ncc(C2c3[nH]c4ccc(Cl)c(F)c4c3CCN2c2nccc(C(F)(F)F)n2)cn1 (stereo not shown) [Compound 199, 5-{6-chloro-5-fluoro-2-[4-(trifluoromethyl)pyrimidin-2-yl]-2,3,4,9-tetrahydro-1H-pyrido[3,4-b]indol-1-yl}-N-methylpyrimidin-2-amine] | 5.4 |
| CCCCOc1nc(C)nc(N2CCc3c([nH]c4ccc(Cl)cc34)C2c2cnc(N3CCOCC3)nc2)n1 (stereo not shown) [Compound 318, 2-(4-butoxy-6-methyl-1,3,5-triazin-2-yl)-6-chloro-1-[2-(morpholin-4-yl)pyrimidin-5-yl]-2,3,4,9-tetrahydro-1H-pyrido[3,4-b]indole] | 4.3 |
